Among the data in ChEMBL document CHEMBL1201862, “PubChem BioAssay data set” (2004) are IC50 and EC50 values, retold here.

SMILES strings stand for the structures. Active and inactive are the calls of the source.

One experiment has as its target Genome polyprotein (Hepatitis C virus, UniProt Q2Q167). Briefly: disruption of hepatitis C core self-association – biochemical, TR-FRET, dose response (AID 2159).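 Note: blocks dimerization of HCV core protein measured by TR-FRET between tagged core106 pairs.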 More on the design: species or system Hepacivirus hominis. In general terms: In TR-FRET formats the signal depends on donor and acceptor labels being close together.
Experiment [1] has as its target T1, SUMO-activating enzyme (Homo sapiens, UniProt Q9UBT2). Put plainly: blockers of UBC9-mediated SUMO conjugation – biochemical, AlphaScreen, SUMOylation inhibitor project, confirmation (AID 2018). The experiment is classed as functional. In general terms: Bead proximity is the source of the signal in Alpha formats.
The target in experiment [2] is T1, SUMO-activating enzyme. Briefly: blockers of SAE1/SAE2–UBC9 SUMO transfer – biochemical, HTRF, uHTS, primary screen (AID 2006). The experiment is classed as protein-complex assay.
In experiment [3] the target is Induced myeloid leukemia cell differentiation protein Mcl-1 (Homo sapiens, UniProt Q07820). It is filed as functional.
Chain of Induced myeloid leukemia cell differentiation protein Mcl-1 (Q07820 whole entry): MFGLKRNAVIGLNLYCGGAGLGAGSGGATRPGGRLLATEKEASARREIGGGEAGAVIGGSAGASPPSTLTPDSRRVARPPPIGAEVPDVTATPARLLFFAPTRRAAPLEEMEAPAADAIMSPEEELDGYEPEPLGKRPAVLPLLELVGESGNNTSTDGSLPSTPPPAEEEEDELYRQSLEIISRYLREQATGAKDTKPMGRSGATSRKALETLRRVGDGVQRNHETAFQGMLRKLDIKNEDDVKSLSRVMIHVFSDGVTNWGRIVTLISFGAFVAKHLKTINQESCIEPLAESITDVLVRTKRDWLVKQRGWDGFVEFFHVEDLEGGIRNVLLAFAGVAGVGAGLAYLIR
The target in experiment [4] is Eukaryotic translation initiation factor 4E (Mus musculus, UniProt P63073). Briefly: blockers of eIF4G binding by eIF4E – biochemical, TR-FRET, dose response (AID 855).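 Note: potency for disrupting eIF4E binding to eIF4GI seen as loss of FRET.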 The experiment is classed as functional.
Chain of Eukaryotic translation initiation factor 4E (P63073 whole entry, the tested form may be a part): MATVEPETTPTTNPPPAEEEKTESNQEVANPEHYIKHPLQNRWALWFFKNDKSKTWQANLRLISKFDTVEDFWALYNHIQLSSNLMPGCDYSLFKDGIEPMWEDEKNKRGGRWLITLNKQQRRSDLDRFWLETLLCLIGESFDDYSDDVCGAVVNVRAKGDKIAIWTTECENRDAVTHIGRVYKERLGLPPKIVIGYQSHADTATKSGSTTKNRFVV
For experiment [5], the target named is T2, Carboxy-terminal domain RNA polymerase II polypeptide A small phosphatase 1 (Homo sapiens, UniProt Q9GZU7).
T2 sequence (Q9GZU7 whole entry): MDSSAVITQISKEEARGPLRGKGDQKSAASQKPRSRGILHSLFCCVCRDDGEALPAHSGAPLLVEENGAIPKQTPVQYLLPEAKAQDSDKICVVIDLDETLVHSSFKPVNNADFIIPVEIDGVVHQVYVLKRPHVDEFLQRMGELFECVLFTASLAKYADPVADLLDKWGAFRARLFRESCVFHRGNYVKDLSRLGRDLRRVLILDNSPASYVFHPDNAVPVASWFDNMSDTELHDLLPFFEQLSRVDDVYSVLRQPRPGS
Put plainly: CTDSP1 inhibitors, concentration-response, biochemical, absorbance readout, ultra-high-throughput screen actives (AID 540297). The experiment is classed as functional.

A short description of experiment [6]: Trypanosoma cruzi growth suppression in host cells – NIH3T3 host cells, beta-gal luminescence, confirmation (AID 2044).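 Note: intracellular parasites grown in NIH/3T3 mouse fibroblasts as host cells; luminescent beta-galactosidase reporter signal from transgenic T. cruzi replicating inside host cells; inhibitors lower the luminescence signal.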 It is filed as functional, cell-based.
Experiment [7] is described as follows: NIH3T3 cell viability loss – ATP luminescence, mouse fibroblasts, counter-screen, dose response (AID 2010).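 Note: cells exposed to compound for about 90 hours before reading.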 It is filed as functional, cell-based. (In general: The purpose of a counterscreen is to sort out artefacts and off-target activity.)
Experiment [8] addresses Serine/threonine-protein phosphatase PP1-alpha catalytic subunit (Homo sapiens, UniProt P62136). Put plainly: inhibition of protein phosphatase 1 activity – biochemical, fluorescence, dose response (AID 2394).
Experiment [9] addresses T3, Serine/threonine-protein phosphatase (Homo sapiens, UniProt Q9BPW0).
T3 sequence (Q9BPW0 whole entry): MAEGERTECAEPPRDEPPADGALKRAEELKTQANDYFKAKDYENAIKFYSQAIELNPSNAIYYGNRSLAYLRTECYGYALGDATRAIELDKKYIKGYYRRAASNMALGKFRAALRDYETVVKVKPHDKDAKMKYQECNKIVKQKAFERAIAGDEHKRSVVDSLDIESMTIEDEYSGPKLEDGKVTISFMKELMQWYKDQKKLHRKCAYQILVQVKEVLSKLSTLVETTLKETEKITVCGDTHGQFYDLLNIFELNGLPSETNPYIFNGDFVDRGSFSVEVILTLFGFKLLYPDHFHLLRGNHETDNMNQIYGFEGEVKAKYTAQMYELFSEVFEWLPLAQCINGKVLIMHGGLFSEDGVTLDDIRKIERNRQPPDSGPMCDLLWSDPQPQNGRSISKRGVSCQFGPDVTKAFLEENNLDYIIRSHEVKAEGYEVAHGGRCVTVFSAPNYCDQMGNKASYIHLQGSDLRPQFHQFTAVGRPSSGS
Put plainly: inhibition of protein phosphatase 5 activity – biochemical, fluorescence, dose response (AID 2395).

For another experiment, the target named is T4, Caspase-3 (Homo sapiens, UniProt P42574).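 Note: Dose-response selectivity test against caspase-3 for candidate inhibitors of sentrin-specific proteases (SENPs).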
T4 sequence (P42574 whole entry): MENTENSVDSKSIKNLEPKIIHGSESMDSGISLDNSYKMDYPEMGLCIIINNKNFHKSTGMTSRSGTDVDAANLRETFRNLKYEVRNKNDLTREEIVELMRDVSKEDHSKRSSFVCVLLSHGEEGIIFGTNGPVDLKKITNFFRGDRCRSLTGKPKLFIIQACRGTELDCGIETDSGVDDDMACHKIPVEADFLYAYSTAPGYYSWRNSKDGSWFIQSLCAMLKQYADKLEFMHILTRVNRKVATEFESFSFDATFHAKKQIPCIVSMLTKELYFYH
The experiment is classed as functional.

Experiment [10] addresses T5, Sentrin-specific protease 7 (Homo sapiens, UniProt Q9BQF6).
T5 sequence (Q9BQF6 whole entry): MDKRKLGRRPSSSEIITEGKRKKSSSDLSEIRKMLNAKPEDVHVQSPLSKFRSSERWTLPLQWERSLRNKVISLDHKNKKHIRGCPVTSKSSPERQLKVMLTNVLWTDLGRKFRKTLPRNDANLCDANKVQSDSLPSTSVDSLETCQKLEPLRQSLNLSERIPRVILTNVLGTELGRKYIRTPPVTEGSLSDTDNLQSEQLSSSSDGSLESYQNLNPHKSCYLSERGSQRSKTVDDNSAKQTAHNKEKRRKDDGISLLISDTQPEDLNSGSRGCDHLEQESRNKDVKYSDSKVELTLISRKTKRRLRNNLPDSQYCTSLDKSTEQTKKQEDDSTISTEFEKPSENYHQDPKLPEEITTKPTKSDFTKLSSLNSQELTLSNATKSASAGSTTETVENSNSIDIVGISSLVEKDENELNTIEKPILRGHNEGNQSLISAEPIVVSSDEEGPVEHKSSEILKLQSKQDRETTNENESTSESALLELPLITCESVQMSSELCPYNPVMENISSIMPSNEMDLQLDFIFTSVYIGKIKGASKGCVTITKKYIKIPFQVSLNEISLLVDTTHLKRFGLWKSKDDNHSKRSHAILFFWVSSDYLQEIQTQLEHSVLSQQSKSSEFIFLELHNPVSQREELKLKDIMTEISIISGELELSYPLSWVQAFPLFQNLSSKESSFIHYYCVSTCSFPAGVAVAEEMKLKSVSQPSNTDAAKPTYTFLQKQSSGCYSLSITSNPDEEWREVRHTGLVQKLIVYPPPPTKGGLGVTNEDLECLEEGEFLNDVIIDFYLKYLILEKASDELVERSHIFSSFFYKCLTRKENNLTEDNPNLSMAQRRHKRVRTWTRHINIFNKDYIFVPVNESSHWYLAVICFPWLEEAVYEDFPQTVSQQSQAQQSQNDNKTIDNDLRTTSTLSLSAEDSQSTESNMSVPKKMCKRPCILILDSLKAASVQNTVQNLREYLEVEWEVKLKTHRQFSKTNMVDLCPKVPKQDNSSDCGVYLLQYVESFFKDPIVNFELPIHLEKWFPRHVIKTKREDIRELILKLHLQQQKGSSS
The experiment is classed as functional.

Experiment [11] deals with T6, Sentrin-specific protease 6 (Homo sapiens, UniProt Q9GZR1).
T6 sequence (Q9GZR1 whole entry): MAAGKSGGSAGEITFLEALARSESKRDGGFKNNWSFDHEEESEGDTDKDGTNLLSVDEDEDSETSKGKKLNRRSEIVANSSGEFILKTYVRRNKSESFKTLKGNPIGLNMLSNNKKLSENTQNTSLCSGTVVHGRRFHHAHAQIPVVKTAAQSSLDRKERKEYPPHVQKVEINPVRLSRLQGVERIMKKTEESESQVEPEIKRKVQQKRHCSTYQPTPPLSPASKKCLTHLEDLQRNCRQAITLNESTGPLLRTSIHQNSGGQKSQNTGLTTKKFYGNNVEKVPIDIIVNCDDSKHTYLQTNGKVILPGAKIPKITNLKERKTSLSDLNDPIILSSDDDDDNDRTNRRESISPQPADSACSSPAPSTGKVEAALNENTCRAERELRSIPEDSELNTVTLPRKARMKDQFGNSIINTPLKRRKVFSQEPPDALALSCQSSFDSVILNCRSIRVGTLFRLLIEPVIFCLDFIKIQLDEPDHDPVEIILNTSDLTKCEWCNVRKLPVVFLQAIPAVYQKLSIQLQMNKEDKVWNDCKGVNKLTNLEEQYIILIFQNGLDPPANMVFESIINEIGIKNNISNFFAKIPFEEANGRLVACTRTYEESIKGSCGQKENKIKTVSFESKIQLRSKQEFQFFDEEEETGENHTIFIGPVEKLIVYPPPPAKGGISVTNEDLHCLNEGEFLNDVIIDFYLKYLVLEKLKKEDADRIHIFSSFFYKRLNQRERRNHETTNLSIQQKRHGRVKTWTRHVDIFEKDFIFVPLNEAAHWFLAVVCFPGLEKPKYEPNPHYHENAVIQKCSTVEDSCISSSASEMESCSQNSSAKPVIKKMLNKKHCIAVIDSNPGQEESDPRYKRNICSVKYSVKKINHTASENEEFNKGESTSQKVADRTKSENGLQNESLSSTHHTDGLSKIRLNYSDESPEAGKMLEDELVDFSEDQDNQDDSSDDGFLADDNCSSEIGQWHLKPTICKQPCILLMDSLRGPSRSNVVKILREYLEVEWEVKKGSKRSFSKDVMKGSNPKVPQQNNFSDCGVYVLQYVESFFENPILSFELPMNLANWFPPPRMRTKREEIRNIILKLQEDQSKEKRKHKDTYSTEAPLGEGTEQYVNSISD
It is filed as functional.

For experiment [12], the target named is T7, Sentrin-specific protease 8 (Homo sapiens, UniProt Q96LD8).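 Note: luminescence read-out of SENP8 inhibition, dose-response confirmation following an ultra-high-throughput screen.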
T7 sequence (Q96LD8 whole entry): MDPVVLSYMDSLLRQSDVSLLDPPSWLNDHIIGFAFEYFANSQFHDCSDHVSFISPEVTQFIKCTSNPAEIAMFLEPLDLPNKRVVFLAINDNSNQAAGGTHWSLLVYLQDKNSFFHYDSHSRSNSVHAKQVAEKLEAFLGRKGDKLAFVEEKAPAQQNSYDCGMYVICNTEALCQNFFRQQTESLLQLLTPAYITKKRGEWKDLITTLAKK
The experiment is classed as functional.

The nature of experiment [13]: M. tuberculosis growth inhibition, HTS (AID 449762). It is filed as functional.
Experiment [14] addresses E3 ubiquitin-protein ligase Mdm2 (Homo sapiens, UniProt Q00987). Put plainly: MDM2-luc reporter signal enhancers, multi-concentration potency testing, MDM2 ubiquitin-protein ligase inhibitor program, whole-cell format, luminescence detection, 384-well microplate (AID 1394).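 Note: MDM2 E3 inhibitors raise luminescence so EC50 is for signal enhancement.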 The experiment is classed as functional.
Experiment [15] deals with T8, Rac GTPase-activating protein 1 (Homo sapiens, UniProt Q9H0H5).
T8 sequence (Q9H0H5 whole entry): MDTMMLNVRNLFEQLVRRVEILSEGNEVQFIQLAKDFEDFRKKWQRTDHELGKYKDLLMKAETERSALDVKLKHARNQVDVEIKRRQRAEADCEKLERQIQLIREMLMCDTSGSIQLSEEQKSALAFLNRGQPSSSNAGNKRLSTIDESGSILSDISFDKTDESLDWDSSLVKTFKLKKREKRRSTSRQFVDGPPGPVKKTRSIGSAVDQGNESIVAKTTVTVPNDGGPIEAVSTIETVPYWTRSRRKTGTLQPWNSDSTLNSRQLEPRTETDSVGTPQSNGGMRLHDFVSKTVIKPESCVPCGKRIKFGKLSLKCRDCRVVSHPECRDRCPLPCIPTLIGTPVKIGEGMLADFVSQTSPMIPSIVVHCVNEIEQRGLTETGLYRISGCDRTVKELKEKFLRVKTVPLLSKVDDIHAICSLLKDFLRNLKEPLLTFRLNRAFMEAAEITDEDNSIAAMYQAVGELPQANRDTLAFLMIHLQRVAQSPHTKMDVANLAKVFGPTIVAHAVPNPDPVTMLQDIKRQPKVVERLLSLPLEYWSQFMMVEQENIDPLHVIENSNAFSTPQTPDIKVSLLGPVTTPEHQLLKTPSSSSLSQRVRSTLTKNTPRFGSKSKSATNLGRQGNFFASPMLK
Briefly: blockers of MgcRacGAP-driven Rac1 GTP hydrolysis – biochemical, ADP Hunter fluorescence, primary and confirmatory, confirmation (AID 624330). The experiment is classed as functional.

A short description of experiment [16]: Luminescence Cell-Based Dose Response HTS to Identify Activators of Luciferase Translation or Activity in H4 […] Cells. [Related pubchem assays: 1829 (Project Summary), 1814 (Primary HTS)]. The experiment is classed as functional.
The nature of experiment [17]: Luminescence-based dose response cell-based high throughput screening assay for cytotoxic compounds using the IEC-6 intestinal epithelial cell line. [Related pubchem assays: 1858 (Summary AID.), 1825 (Counterscreen.), 1907 (Confirmation screen.)]. The experiment is classed as functional.

T1 sequence (Q9UBE0 whole entry): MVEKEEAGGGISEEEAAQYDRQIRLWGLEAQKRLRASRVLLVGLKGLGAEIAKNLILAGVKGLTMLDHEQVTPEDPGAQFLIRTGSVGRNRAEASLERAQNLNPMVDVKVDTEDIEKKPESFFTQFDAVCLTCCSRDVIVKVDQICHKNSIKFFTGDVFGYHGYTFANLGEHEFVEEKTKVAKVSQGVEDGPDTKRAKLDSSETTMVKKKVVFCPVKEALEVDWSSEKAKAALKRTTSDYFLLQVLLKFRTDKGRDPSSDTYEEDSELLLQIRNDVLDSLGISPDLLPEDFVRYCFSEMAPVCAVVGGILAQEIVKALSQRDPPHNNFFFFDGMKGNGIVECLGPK
T1 sequence (Q9UBT2 whole entry): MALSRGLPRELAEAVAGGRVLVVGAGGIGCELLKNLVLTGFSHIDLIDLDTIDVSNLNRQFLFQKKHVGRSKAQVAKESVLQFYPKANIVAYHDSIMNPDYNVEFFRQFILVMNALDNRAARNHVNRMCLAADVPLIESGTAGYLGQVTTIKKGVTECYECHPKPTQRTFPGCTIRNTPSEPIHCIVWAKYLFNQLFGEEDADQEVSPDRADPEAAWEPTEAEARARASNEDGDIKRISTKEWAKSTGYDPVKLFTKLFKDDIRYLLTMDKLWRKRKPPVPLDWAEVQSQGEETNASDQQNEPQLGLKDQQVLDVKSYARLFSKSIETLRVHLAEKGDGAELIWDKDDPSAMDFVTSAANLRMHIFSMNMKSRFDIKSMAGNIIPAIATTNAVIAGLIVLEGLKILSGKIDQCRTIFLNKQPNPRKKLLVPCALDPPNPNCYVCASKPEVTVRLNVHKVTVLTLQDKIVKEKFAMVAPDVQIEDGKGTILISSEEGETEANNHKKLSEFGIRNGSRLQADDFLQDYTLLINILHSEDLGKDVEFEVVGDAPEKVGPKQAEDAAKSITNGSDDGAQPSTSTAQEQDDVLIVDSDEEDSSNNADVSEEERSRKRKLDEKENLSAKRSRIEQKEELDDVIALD
Chain of E3 ubiquitin-protein ligase Mdm2 (Q00987 whole entry): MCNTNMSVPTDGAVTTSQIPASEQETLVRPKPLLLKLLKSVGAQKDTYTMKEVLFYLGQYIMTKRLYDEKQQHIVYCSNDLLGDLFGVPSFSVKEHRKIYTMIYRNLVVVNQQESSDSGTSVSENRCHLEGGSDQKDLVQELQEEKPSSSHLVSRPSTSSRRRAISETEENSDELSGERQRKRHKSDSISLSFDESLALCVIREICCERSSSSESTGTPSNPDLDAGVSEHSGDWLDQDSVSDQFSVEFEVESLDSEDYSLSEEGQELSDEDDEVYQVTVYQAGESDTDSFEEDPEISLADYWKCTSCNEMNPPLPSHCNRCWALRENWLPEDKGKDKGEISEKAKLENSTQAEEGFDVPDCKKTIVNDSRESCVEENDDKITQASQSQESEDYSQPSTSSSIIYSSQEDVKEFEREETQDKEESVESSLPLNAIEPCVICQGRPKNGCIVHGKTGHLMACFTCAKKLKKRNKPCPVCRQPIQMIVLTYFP
Chain of Serine/threonine-protein phosphatase PP1-alpha catalytic subunit (P62136 whole entry): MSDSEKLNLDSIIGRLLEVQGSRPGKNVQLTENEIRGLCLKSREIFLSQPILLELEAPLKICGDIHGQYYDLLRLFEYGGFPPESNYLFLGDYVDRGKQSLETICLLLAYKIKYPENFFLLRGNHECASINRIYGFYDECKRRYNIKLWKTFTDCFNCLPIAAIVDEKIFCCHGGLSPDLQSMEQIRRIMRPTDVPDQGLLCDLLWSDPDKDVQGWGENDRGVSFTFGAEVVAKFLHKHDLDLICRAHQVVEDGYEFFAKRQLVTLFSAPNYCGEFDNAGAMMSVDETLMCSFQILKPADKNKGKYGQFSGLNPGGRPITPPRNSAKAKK
Chain of Genome polyprotein (Q2Q167 whole entry): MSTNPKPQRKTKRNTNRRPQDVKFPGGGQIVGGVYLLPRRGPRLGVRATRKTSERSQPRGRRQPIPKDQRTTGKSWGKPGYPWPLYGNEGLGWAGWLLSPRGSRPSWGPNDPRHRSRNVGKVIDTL

Usually IC50 stands for the point on the concentration scale where inhibition reaches its midpoint. As for `O=C(Nc1nccs1)c1cc(-c2ccco2)nc2ccccc12`, the half-maximal inhibitory concentration (IC50) against Genome polyprotein is > 49.8 µM (not active); at SUMO-activating enzyme [1], 6.87 µM (active); on SUMO-activating enzyme [2], 24.2 µM (active); in experiment [3] it was 2.5 µM (active); in [4], > 64 µM (inactive); in [5], 3.98 µM (active).

Broadly, the EC50 is the concentration that produces a half-maximal response. Turning to `CCOc1ccc(OCC(O)CNC2CCN(Cc3ccccc3)CC2)cc1` (configuration not stated), the EC50 in [6] was < 0.1 µM (active); in [7], 9.8 µM (active); in the experiment “cells”, 0.255 µM (active).

As for `CN1CC[C@@]2(C)c3cc(O)ccc3N(C)C2O1` (some centres not stated), the IC50 in experiment [8] is 52.3 µM (not active); in [9], > 7.45 µM (active); on Caspase-3, > 100 µM (inactive); in [10], 14.3 µM (active); in [11] it was 11.9 µM (active); in experiment [12] it was 10.7 µM (active).

For `COc1ccc(NC(=O)ON=C2c3ccccc3-c3ccccc32)cc1`, the IC50 in [13] is > 100 µM (active).

With `CCCOC(=O)c1ccc(O)c(OC)c1`, the concentration giving a half-maximal response (EC50) in [14] was 468 µM (not active). Further, the IC50 in experiment [15] was 127 µM (active).

For `Cc1ccc(Nc2nc(-c3ccncc3)cs2)cc1`, the EC50 in experiment [16] is 0.149 µM (active); in experiment [6], 0.239 µM (active); in experiment [7], 8.83 µM (active). For the same compound, the IC50 in experiment [17] is 2.71 µM (active).
